{"source": "paper PMC12666239", "about": "(Chembiochem, 2025)", "molecular_target": "Nsp3b^F360N/D361S (Severe acute respiratory syndrome coronavirus 2, UniProt P0DTD1, D1179S/F1178N)", "type": "binding, SARS-CoV-2", "note": "Where “and” joins values, the source holds several entries; their conditions need not be identical. Equal values may be shown once.", "data": [{"smiles": "N#C[C@@]1(c2ccc3c(N)ncnn23)O[C@H](COS(N)(=O)=O)[C@@H](O)[C@H]1O", "note": "[compound 3]", "values": [{"measurement": "TΔS", "value": "≈ 0.10 kcal mol^−1"}, {"measurement": "ΔG", "value": "−7.73", "unit": "kcal mol^–1"}, {"measurement": "ΔH", "value": "−7.83 ± 0.15 and −7.83 ± 0.15 kcal mol^–1"}, {"measurement": "−TΔS", "value": 0.104, "unit": "kcal mol^–1"}]}]}
